Data as given in PubChem BioAssay AID1259407 (Chemical Carcinogenesis Research Information System (CCRIS), 2018).
Active and inactive are the calls of the source. No rule for the calls is given here.

System: CCRIS mutagenicity, Ames/micronucleus/aberration tests
Test: CCRIS mutagenicity studies
[1] = Test System: AMES SALMONELLA TYPHIMURIUM, Strain/Indicator: TA98, Metabolic Activation: NONE, Method: PREINCUBATION
[2] = Test System: AMES SALMONELLA TYPHIMURIUM, Strain/Indicator: TA100, Metabolic Activation: NONE, Method: PREINCUBATION
[3] = Test System: AMES SALMONELLA TYPHIMURIUM, Strain/Indicator: TA100, Metabolic Activation: NONE, Method: STANDARD PLATE
[4] = Test System: AMES SALMONELLA TYPHIMURIUM, Strain/Indicator: TA100, Metabolic Activation: RAT, LIVER, S-9, AROCLOR 1254, Method: STANDARD PLATE
[5] = Test System: AMES SALMONELLA TYPHIMURIUM, Strain/Indicator: TA98, Metabolic Activation: NONE, Method: STANDARD PLATE
[6] = Test System: AMES SALMONELLA TYPHIMURIUM, Strain/Indicator: TA98, Metabolic Activation: RAT, LIVER, S-9, AROCLOR 1254, Method: STANDARD PLATE
[7] = Test System: AMES SALMONELLA TYPHIMURIUM, Strain/Indicator: TA1535, Metabolic Activation: NONE, Method: STANDARD PLATE
[8] = Test System: AMES SALMONELLA TYPHIMURIUM, Strain/Indicator: TA1535, Metabolic Activation: RAT, LIVER, S-9, AROCLOR 1254, Method: STANDARD PLATE
[9] = Test System: AMES SALMONELLA TYPHIMURIUM, Strain/Indicator: TA1537, Metabolic Activation: NONE, Method: STANDARD PLATE
[10] = Test System: AMES SALMONELLA TYPHIMURIUM, Strain/Indicator: TA1537, Metabolic Activation: RAT, LIVER, S-9, AROCLOR 1254, Method: STANDARD PLATE

**Q.** `Cc1cccs1` was tested. Which mutagenic call [1] did it give?
**A.** The mutagenic call was “inactive; negative”.

**Q.** What about the mutagenic call (Test System: AMES SALMONELLA TYPHIMURIUM, Strain/Indicator: TA98, Metabolic Activation: RAT, LIVER, S-9, AROCLOR 1254, Method: PREINCUBATION) of the same compound?
**A.** The mutagenic call was “inactive; negative”.

**Q.** What about the mutagenic call [2] of the same compound?
**A.** Its mutagenic call is “inactive; negative”.

**Q.** And the mutagenic call (Test System: AMES SALMONELLA TYPHIMURIUM, Strain/Indicator: TA100, Metabolic Activation: RAT, LIVER, S-9, AROCLOR 1254, Method: PREINCUBATION)?
**A.** The mutagenic call was “inactive; negative”.

**Q.** And the mutagenic call (Test System: AMES SALMONELLA TYPHIMURIUM, Strain/Indicator: TA102, Metabolic Activation: NONE, Method: PREINCUBATION)?
**A.** The mutagenic call was “inactive; negative”.

**Q.** And the mutagenic call (Test System: AMES SALMONELLA TYPHIMURIUM, Strain/Indicator: TA102, Metabolic Activation: RAT, LIVER, S-9, AROCLOR 1254, Method: PREINCUBATION)?
**A.** Its mutagenic call is “inactive; negative”.

**Q.** How did the mutagenic call [1] turn out when `Nc1ccc(Oc2ccc(N)c(Cl)c2)cc1Cl` was run?
**A.** Its mutagenic call is “inactive; negative”.

**Q.** And the mutagenic call (Test System: AMES SALMONELLA TYPHIMURIUM, Strain/Indicator: TA98, Metabolic Activation: RAT, LIVER, S-9, PCB, Method: PREINCUBATION)?
**A.** The mutagenic call was “active; positive”.

**Q.** And the mutagenic call [2]?
**A.** Its mutagenic call is “inactive; negative”.

**Q.** And the mutagenic call (Test System: AMES SALMONELLA TYPHIMURIUM, Strain/Indicator: TA100, Metabolic Activation: RAT, LIVER, S-9, PCB, Method: PREINCUBATION)?
**A.** The mutagenic call was “active; positive”.

**Q.** Which mutagenic call (Test System: AMES SALMONELLA TYPHIMURIUM, Strain/Indicator: TA98, Metabolic Activation: RAT, LIVER, S-9, PHENOBARBITAL, Method: STANDARD PLATE) does the source give for `COc1cc2c(c3oc(=O)c4c(c13)CC[C@@H]4O)[C@@H]1C=CO[C@@H]1O2` here?
**A.** Its mutagenic call is “active; positive”.

**Q.** What about the mutagenic call (Test System: AMES SALMONELLA TYPHIMURIUM, Strain/Indicator: TA98, Metabolic Activation: RAT, LIVER, S-9, Method: STANDARD PLATE) of the same compound?
**A.** The mutagenic call was “active; positive”.

**Q.** What about the mutagenic call [3] of the same compound?
**A.** Its mutagenic call is “inactive; negative”.

**Q.** And the mutagenic call [4]?
**A.** Its mutagenic call is “active; positive”.

**Q.** And the mutagenic call (Test System: UDS HUMAN FIBROBLASTS, Strain/Indicator: THY INCORP (NON-S-PHASE), Metabolic Activation: MOUSE, LIVER, S-9, Method: AUTORADIOGRAPHY)?
**A.** The mutagenic call was “active; positive”.

**Q.** And the mutagenic call (Test System: UDS HUMAN FIBROBLASTS, Strain/Indicator: THY INCORP (NON-S-PHASE), Metabolic Activation: RAT, LIVER, S-9, Method: AUTORADIOGRAPHY)?
**A.** The mutagenic call was “active; positive”.

**Q.** What does the source list for `O=[N+]([O-])c1ccccc1C(F)(F)F`?
**A.** mutagenic call [5]: inactive; negative; mutagenic call [6]: inactive; negative; mutagenic call [3]: inactive; negative; mutagenic call [4]: inactive; negative; mutagenic call [7]: inactive; negative; mutagenic call [8]: inactive; negative; mutagenic call [9]: inactive; negative; mutagenic call [10]: inactive; negative; mutagenic call (Test System: AMES SALMONELLA TYPHIMURIUM, Strain/Indicator: TA1538, Metabolic Activation: NONE, Method: STANDARD PLATE): inactive; negative; mutagenic call (Test System: AMES SALMONELLA TYPHIMURIUM, Strain/Indicator: TA1538, Metabolic Activation: RAT, LIVER, S-9, AROCLOR 1254, Method: STANDARD PLATE): inactive; negative

**Q.** Which results are given for `N[C@H](CS)C(=O)O`?
**A.** mutagenic call (Test System: AMES SALMONELLA TYPHIMURIUM, Strain/Indicator: TA92, Metabolic Activation: NONE, Method: STANDARD PLATE): inactive; negative; mutagenic call (Test System: AMES SALMONELLA TYPHIMURIUM, Strain/Indicator: TA92, Metabolic Activation: RAT, KIDNEY, S-9, Method: STANDARD PLATE): inactive; negative; mutagenic call (Test System: AMES SALMONELLA TYPHIMURIUM, Strain/Indicator: TA92, Metabolic Activation: RAT, LIVER, S-9, Method: STANDARD PLATE): inactive; negative; mutagenic call [3]: inactive; negative; mutagenic call (Test System: AMES SALMONELLA TYPHIMURIUM, Strain/Indicator: TA100, Metabolic Activation: RAT, KIDNEY, S-9, Method: STANDARD PLATE): inactive; negative; mutagenic call (Test System: AMES SALMONELLA TYPHIMURIUM, Strain/Indicator: TA100, Metabolic Activation: RAT, LIVER, S-9, Method: STANDARD PLATE): inactive; negative

**Q.** For `Cc1cccc2cc3ccc4cccc5ccc(c12)c3c45`, which mutagenic call (Test System: AMES SALMONELLA TYPHIMURIUM, Strain/Indicator: TA100, Metabolic Activation: RAT, INTACT HEPATOCYTES, AROCLOR 1254, Method: PREINCUBATION) is on record?
**A.** The mutagenic call was “inactive; negative”.

**Q.** What about the mutagenic call (Test System: AMES SALMONELLA TYPHIMURIUM, Strain/Indicator: TA100, Metabolic Activation: RAT, NADPH-FORTIFIED HOMOGENIZED HEPATOCYTES, AROCLOR 1254, Method: PREINCUBATION) of the same compound?
**A.** Its mutagenic call is “active; positive”.

**Q.** How did the mutagenic call [5] turn out when `O=Cc1cccc2cccnc12` was run?
**A.** Its mutagenic call is “inactive; negative”.

**Q.** And the mutagenic call [6]?
**A.** The mutagenic call was “inactive; negative”.

**Q.** And the mutagenic call [3]?
**A.** Its mutagenic call is “inactive; negative”.

**Q.** What about the mutagenic call [4] of the same compound?
**A.** The mutagenic call was “active; positive”.

**Q.** What about the mutagenic call [7] of the same compound?
**A.** The mutagenic call was “inactive; negative”.

**Q.** What about the mutagenic call [8] of the same compound?
**A.** Its mutagenic call is “inactive; negative”.

**Q.** And the mutagenic call [9]?
**A.** Its mutagenic call is “inactive; negative”.

**Q.** And the mutagenic call [10]?
**A.** The mutagenic call was “inactive; negative”.

**Q.** With `CC(C)(c1ccccc1)c1ccc(O)cc1` as the compound, how does the mutagenic call [1] read?
**A.** Its mutagenic call is “inactive; negative”.

**Q.** And the mutagenic call (Test System: AMES SALMONELLA TYPHIMURIUM, Strain/Indicator: TA98, Metabolic Activation: RAT LIVER S-9, PHENOBARBITAL AND BETA-NAPHTHOFLAVONE, Method: PREINCUBATION)?
**A.** Its mutagenic call is “inactive; negative”.

**Q.** What about the mutagenic call [2] of the same compound?
**A.** Its mutagenic call is “inactive; negative”.

**Q.** And the mutagenic call (Test System: AMES SALMONELLA TYPHIMURIUM, Strain/Indicator: TA100, Metabolic Activation: RAT LIVER S-9, PHENOBARBITAL AND BETA-NAPHTHOFLAVONE, Method: PREINCUBATION)?
**A.** The mutagenic call was “inactive; negative”.

**Q.** And the mutagenic call (Test System: AMES SALMONELLA TYPHIMURIUM, Strain/Indicator: TA1535, Metabolic Activation: NONE, Method: PREINCUBATION)?
**A.** The mutagenic call was “inactive; negative”.

**Q.** And the mutagenic call (Test System: AMES SALMONELLA TYPHIMURIUM, Strain/Indicator: TA1535, Metabolic Activation: RAT LIVER S-9, PHENOBARBITAL AND BETA-NAPHTHOFLAVONE, Method: PREINCUBATION)?
**A.** Its mutagenic call is “inactive; negative”.

**Q.** And the mutagenic call (Test System: AMES SALMONELLA TYPHIMURIUM, Strain/Indicator: TA1537, Metabolic Activation: NONE, Method: PREINCUBATION)?
**A.** The mutagenic call was “inactive; negative”.

**Q.** What about the mutagenic call (Test System: AMES SALMONELLA TYPHIMURIUM, Strain/Indicator: TA1537, Metabolic Activation: RAT LIVER S-9, PHENOBARBITAL AND BETA-NAPHTHOFLAVONE, Method: PREINCUBATION) of the same compound?
**A.** Its mutagenic call is “inactive; negative”.

**Q.** What about the mutagenic call (Test System: AMES SALMONELLA TYPHIMURIUM, Strain/Indicator: TA1538, Metabolic Activation: NONE, Method: PREINCUBATION) of the same compound?
**A.** The mutagenic call was “inactive; negative”.

**Q.** And the mutagenic call (Test System: AMES SALMONELLA TYPHIMURIUM, Strain/Indicator: TA1538, Metabolic Activation: RAT LIVER S-9, PHENOBARBITAL AND BETA-NAPHTHOFLAVONE, Method: PREINCUBATION)?
**A.** Its mutagenic call is “inactive; negative”.

**Q.** And the mutagenic call (Test System: E.COLI, Strain/Indicator: WP2UVRA, Metabolic Activation: NONE, Method: PREINCUBATION)?
**A.** Its mutagenic call is “inactive; negative”.

**Q.** And the mutagenic call (Test System: E.COLI, Strain/Indicator: WP2UVRA, Metabolic Activation: RAT LIVER S-9, PHENOBARBITAL AND BETA-NAPHTHOFLAVONE, Method: PREINCUBATION)?
**A.** The mutagenic call was “inactive; negative”.

**Q.** What does the source list for `O=[N+]([O-])C1c2ccccc2-c2ccccc21`?
**A.** mutagenic call (End Point: IN VITRO CHROMOSOMAL ABERRATIONS, Test System: CHINESE HAMSTER LUNG (CHL) CELLS, Metabolic Activation: NONE): active; positive; mutagenic call (End Point: IN VITRO CHROMOSOMAL ABERRATIONS, Test System: CHINESE HAMSTER LUNG (CHL) CELLS, Metabolic Activation: NONE, Method: FISH): active; positive; mutagenic call (End Point: IN VITRO CHROMOSOMAL ABERRATIONS, Test System: CHINESE HAMSTER LUNG (CHL) CELLS, Metabolic Activation: RAT, LIVER, S-9, KC-400): active; positive; mutagenic call (Test System: E. COLI, Strain/Indicator: WP2 UVRA, Metabolic Activation: NONE, Method: FLUCTUATION): active; positive

**Q.** How did the mutagenic call [3] turn out when `c1ccc2c(c1)-c1cc3c(cc1C1NC21)-c1ccccc1C1NC31` (centres undefined) was run?
**A.** The mutagenic call was “active; positive”.
